Legend:
PKA = assay: Immunohistochemistry of tumor tissue, PKA; format: in vivo, BALB/c mice
Experimental: (§1) Solid tumors were developed in BALB/c mice (n = 3) except the control group (group I) by injecting 1 × 10^4 viable 4T1 (RRID: CVCL_0125) mice breast carcinoma cells (resuspended in 50 μl of PBS) into the inguinal fourth mammary fat pad, and the tumor was allowed to develop for 14 days ([37], [38]). Mice were randomly divided into three groups, viz., untreated tumor (group II), mice treated intraperitoneally with 1 mg//kg bodyweight of rolipram (group III), and mice receiving 5 mg/kg bodyweight of rolipram, intraperitoneally (group IV) ([39], [40]). After 14 days, the mice were sacrificed. Lung, kidney, liver, serum, and the tumors were collected for further experiments ([15]).
(§2) Mice mammary fat pad and mammary tumor tissues were processed as for histology, and 5 μm-thick sections were mounted on glass slides. The tissue sections were deparaffinized with xylene and hydrated with […] grades of alcohols (100% to 70%). Rehydrated sections were equilibrated in PBS. Antigen retrieval was performed by boiling the sections in a 0.1 M sodium citrate buffer (pH 6.0) for 10 min. […] The frequency (cell count) of positive and negative cells as well as the mean absorbance of the positive cells were plotted using MatPlotLib (RRID: SCR_008624), a Python (RRID: SCR_008394) 2D plotting library.

MDA-MB-231 cells [1] = assay: Flow cytometric analysis of DNA content (PI); format: cell-based, human; settings: MDA-MB-231, IC50 dose, 24 h, vs control
Experimental: (§3) After treating the cells with rolipram for 24 h, cells were stained with PI (BD Pharmingen PI/RNase Staining Buffer; BD Biosciences; catalog no.: BD550825), following fixing of cells with 70% ethanol for 1 h at 4°C and permeabilization with 0.1% Triton X-100 (Sigma–Aldrich; catalog no.: X100). The cells were then analyzed using BD LSRFortessa flow cytometer (RRID: SCR_019600), and the data were analyzed using BD FACSDiva 9.0 software ([30]) (RRID: SCR_001456).

MCF-7 cells [2] = assay: Flow cytometric analysis of DNA content (PI); format: cell-based, human; settings: MCF-7, IC50 dose, 24 h, vs control
Experimental: as §3

MDA-MB-231 cells [3] = assay: Western blot analysis of protein expression; format: cell-based, human
Experimental: (§4) After treatment of cells with rolipram, proteins were extracted from cells by lysing the cells with radioimmunoprecipitation assay buffer, comprising of 150 mM NaCl, 1% Triton X-100, 0.5% sodium deoxycholate, and 0.1% SDS. Equal amount of proteins (40 μg) were resolved using SDS-PAGE before transferring onto nitrocellulose membrane (Immobilon-NC Transfer Membrane; Merck Millipore; catalog no.: HATF00010). The membranes were then incubated overnight with primary antibody at a dilution of 1:1000 at 4°C followed by incubation with secondary antibodies at a dilution of 1:5000 for 2 h at room temperature. Immune detection was performed using femtoLUCENT PLUS-HRP (G-Biosciences; catalog no.: 786-003), and the image was obtained from the Bio-Rad ChemiDoc XRS+ system. Analysis of protein expression was carried out using Bio-Rad Image Lab software (RRID: SCR_014210) and National Institutes of Health ImageJ software ([34]) (RRID: SCR_003070). All protein expressions were normalized against β-tubulin (loading control).

MCF-7 cells [4] = assay: Western blot analysis of protein expression; format: cell-based, human
Experimental: as §4

[5] = Bodyweight of tumor-bearing mice; format: in vivo, BALB/c mice; settings: intraperitoneally
Experimental: as §1

MDA-MB-231 cells [6] = assay: Wound healing assay; format: cell-based, human
Experimental: (§5) Cells were seeded and allowed to attain a 2D monolayer of cells. […] The percentage of open area was evaluated using Tscratch software (CSElab, Koumoutsakos group at ETH Zurich, https://github.com/cselab/TScratch) (RRID: SCR_014282).

MCF-7 cells [7] = assay: Wound healing assay; format: cell-based, human
Experimental: as §5

GLI1 = assay: Immunohistochemistry of tumor tissue, GLI1; format: in vivo, BALB/c mice
Experimental: as §1, §2

[8] = MDA-MB-231, IC50 dose, time course

SMILES: COc1ccc(C2CNC(=O)C2)cc1OC1CCCC1 (stereo not shown) [rolipram, Rolipram]
- increase of PKA-positive cells compared with tumor tissues (PKA; 1 mg/kg bodyweight): ~1.5 fold
- increase of PKA-positive cells compared with tumor tissues (PKA; 5 mg/kg bodyweight): ~1.5 fold
- G0/G1 cell population (MDA-MB-231 cells [1]): significantly increased
- G0/G1 cell population (MCF-7 cells [2]): significantly increased
- reduction of MMP9 expression (MDA-MB-231 cells [3]; MDA-MB-231 (TNBC cells)): twofold
- downregulation of expression of MMP2 (MDA-MB-231 cells [3]; MDA-MB-231, IC50 dose): twofold
- levels of phospho-Akt (MDA-MB-231 cells [3]; MDA-MB-231, IC50 dose): reduced
- levels of phosphorylated-GSK3β (MDA-MB-231 cells [3]; MDA-MB-231, IC50 dose): reduced levels
- level of GLI2R (MDA-MB-231 cells [3]; MDA-MB-231, IC50 dose, 48 h): decreased slightly
- level of GLI2FL (MDA-MB-231 cells [3]; [8]): significantly decreased with time
- level of GLI3R (MDA-MB-231 cells [3]; [8]): increased with time
- levels of PKA (MDA-MB-231 cells [3]; [8]): increased levels
- level of GLI1 (MDA-MB-231 cells [3]; MDA-MB-231, IC50 dose, time-dependent): reduced
- level of GLI2R (MDA-MB-231 cells [3]; MDA-MB-231, IC50 dose, up to 24 h): increased up to 24 h
- elevated expression of PTEN (MDA-MB-231 cells [3]; MDA-MB-231, IC50 dose, within 12 h): threefold
- level of E-cadherin (MDA-MB-231 cells [3]; MDA-MB-231, after 24 h): no conclusive change
- levels of vimentin (MDA-MB-231 cells [3]; MDA-MB-231, after 48 h): decrease
- levels of GLI proteins (MDA-MB-231 cells [3]; MDA-MB-231, cotreatment with H89 (10 μM), 24 h, vs control and H89 only): unaltered
- repressor forms of GLI2 and GLI3 (MDA-MB-231 cells [3]; MDA-MB-231, in combination with TAK-243 (0.1 μM), 24 h): failed to produce the repressor forms
- effects on expressions of MMPs, E-cadherin, and vimentin (MDA-MB-231 cells [3]; MDA-MB-231, in the presence of TAK-243): failed to exert any of the aforementioned effects
- reduction of MMP9 expression (MCF-7 cells [4]; MCF-7 (hormone-responsive cells), 48 h): fourfold
- downregulation of expression of MMP2 (MCF-7 cells [4]; MCF-7, IC50 dose): twofold
- levels of phospho-Akt (MCF-7 cells [4]; MCF-7, IC50 dose): reduced
- levels of phosphorylated-GSK3β (MCF-7 cells [4]; MCF-7, IC50 dose): reduced levels
- level of GLI2FL (MCF-7 cells [4]; MCF-7, IC50 dose, time course): remained unchanged
- level of GLI2R (MCF-7 cells [4]; MCF-7, IC50 dose, time course): increased with time
- level of GLI3R (MCF-7 cells [4]; MCF-7, IC50 dose, time course): increased with time
- levels of PKA (MCF-7 cells [4]; MCF-7, IC50 dose, time course): increased levels
- level of GLI1 (MCF-7 cells [4]; MCF-7, IC50 dose, time-dependent): reduced
- elevated expression of PTEN (MCF-7 cells [4]; MCF-7, IC50 dose, within 12 h): threefold
- levels of vimentin (MCF-7 cells [4]; MCF-7, after 48 h): decrease
- levels of GLI proteins (MCF-7 cells [4]; MCF-7, cotreatment with H89 (10 μM), 24 h, vs control and H89 only): unaltered
- repressor forms of GLI2 and GLI3 (MCF-7 cells [4]; MCF-7, in combination with TAK-243 (0.1 μM), 24 h): failed to produce the repressor forms
- effects on expressions of MMPs, E-cadherin, and vimentin (MCF-7 cells [4]; MCF-7, in the presence of TAK-243): failed to exert any of the aforementioned effects
- elevation of level of E-cadherin (MCF-7 cells [4]; MCF-7, within 24 h): twofold
- bodyweight of tumor-bearing mice ([5]; 1 mg/kg bodyweight): No significant changes
- bodyweight of tumor-bearing mice ([5]; 5 mg/kg bodyweight): No significant changes
- percentage of open area (wound) (MDA-MB-231 cells [6]; MDA-MB-231, IC50 dose, 24 and 48 h, untreated 33% to 20% and 12%): no significant change
- cell migration capability (MDA-MB-231 cells [6]; MDA-MB-231, in the presence of TAK-243 (0.1 μM)): failed to retard the cell migration capability
- percentage of open area (wound) (MCF-7 cells [7]; MCF-7, IC50 dose, up to 48 h, untreated 45% to 34% (24 h) and 22% (48 h)): failed to significantly reduce the percentage of open area
- cell migration capability (MCF-7 cells [7]; MCF-7, in the presence of TAK-243 (0.1 μM)): failed to retard the cell migration capability
- reduction of GLI1 expression in tumor tissue (GLI1; 1 mg/kg bodyweight): twofold
- reduction of GLI1 expression in tumor tissue (GLI1; 5 mg/kg bodyweight): sixfold
